Test results as given in US7626042B2, “O-substituted hydroxyaryl derivatives” (Institute of Medicinal Molecular Design, Inc., priority 2002, dated 2009).

Test system: NF-κB activation
Assay: Inhibitory activity against NF-κB activation, luciferase reporter assay under TNF-α stimulation
Assay type: cell-based, human
Conditions: HepG2 cells, TNF-α 40 ng/ml, 4 hours; for inhibition at 1 µg/mL / inhibition at 10 µg/mL: Homo sapiens, read-out: Inhibitory Ratio of NF-κ B Activation(%)
Experimental: Inhibitory activity against NF-κB activation was measured by referring to the method of Hill et al. (Cell, (USA), in 1993, Vol. 73, No. 2, p. 395-406). Using a transfection reagent(Effectene; QIAGEN), the human hepatoma cell strain HepG2 was transfected with a plasmid (pNFκ Luc Reporter Plasmid; STRATAGENE) integrated with an oligonucleotide having five tandem copies of NF-κB binding sequences(TGGGGACTTTCCGC) on a upstream region of firefly luciferase gene (Luc) according to the QIAGEN's protocol, and the cells were incubated for 6 to 24 hours. Then the cells were cultured for 4 hours after the addition of TNF-α (40 ng/ml) in the presence of a test compound, and intracellular luciferase activity was measured by using PicaGene LT (TOYO INK MFG Co., Ltd.) and a chemical luminescence measurement apparatus(SPECTRAFluor Plus; TECAN). The inhibitory ratio was measured as a ratio relative to a value of the luciferase activity in the absence of the test compound.

Row | SMILES | Inhibitory Ratio of NF-κ B Activation(%) (Drug Concentration 1 μg/mL) | Inhibitory Ratio of NF-κ B Activation(%) (Drug Concentration 10 μg/mL) | inhibition at 1 µg/mL (Drug Concentration 1 μg/mL) | inhibition at 10 µg/mL (Drug Concentration 10 μg/mL)
1 | CC(C)C[C@H](NC(=O)[C@H](CC(=O)OC(C)(C)C)NC(=O)OC(C)(C)C)C(=O)Oc1ccc(Cl)cc1C(=O)Nc1cc(C(F)(F)F)cc(C(F)(F)F)c1 [Compound 37, 2-{N-[N-(tert-butoxycarbonyl)-β-O-(tert-butyl)-α-L-aspartyl]-L-leucyl}oxy-5-chloro-N-[3,5-bis(trifluoromethyl)phenyl]benzamide] | 96.6% | 98.1% |  | 
2 | CC(C)(C)OC(=O)NCCCC[C@H](NC(=O)OC(C)(C)C)C(=O)Oc1ccc(Cl)cc1C(=O)Nc1cc(C(F)(F)F)cc(C(F)(F)F)c1 [Compound 33, 5-chloro-2-[N^α,N^ε-di(tert-butoxycarbonyl)-L-lysyl]oxy-N-[3,5-bis(trifluoromethyl)phenyl]benzamide] |  |  | 96.6% | 98.6%
3 | O=C(NCc1ccccc1)Oc1ccc(Cl)cc1C(=O)Nc1cc(C(F)(F)F)cc(C(F)(F)F)c1 [Compound 55] | 97.1% | 99.1% |  | 
4 | CCOC(=O)OC(C)Oc1ccc(Cl)cc1C(=O)Nc1cc(C(F)(F)F)cc(C(F)(F)F)c1 (centres unmarked) [Compound 100] | 96.1% | 98.5% |  | 
5 | O=C(Nc1cc(C(F)(F)F)cc(C(F)(F)F)c1)c1ccc(Cl)cc1OC(=O)N1CCOCC1 [Compound 80, 4-Chloro-2-(morpholinocarbonyl)oxy-N-[3,5-bis(trifluoromethyl)phenyl]benzamide] |  |  | 91.4% | 68.4%
6 | CC(C)S(=O)(=O)Oc1ccc(Cl)cc1C(=O)Nc1cc(C(F)(F)F)cc(C(F)(F)F)c1 [Compound 46] | 89.5% | 96.3% |  | 
7 | CC(C)(C)OC(=O)NCC(=O)Oc1ccc(Cl)cc1C(=O)Nc1cc(C(F)(F)F)cc(C(F)(F)F)c1 [Compound 22, 2-[N-(tert-butoxycarbonyl)glycyl]oxy-5-chloro-N-[3,5-bis(trifluoromethyl)phenyl]-benzamide] |  |  | 35.3% | 98.7%
8 | COC(=O)CC1(C(=O)OC)Oc2ccc(Cl)cc2C(=O)N1c1cc(C(F)(F)F)cc(C(F)(F)F)c1 (centres unmarked) [Compound 117] |  |  | 34.8% | 56.7%
9 | O=C(O)CN(CC(=O)O)C(=O)Oc1ccc(Cl)cc1C(=O)Nc1cc(C(F)(F)F)cc(C(F)(F)F)c1 [Compound 76] | 98.9% | 98.2% |  | 
10 | COc1ccc(C(F)(F)F)cc1NC(=O)c1cc(Br)ccc1OC(=O)N1CCOCC1 [Compound 86, 5-Bromo-N-[2-methoxy-5-(trifluoromethyl)phenyl]-2-[(morpholinocarbonyl)oxy]-benzamide] |  |  | 23.4% | 11.9%
11 | O=C(Nc1cc(C(F)(F)F)cc(C(F)(F)F)c1)c1cc(-c2ccccc2)ccc1OC(=O)N1CCOCC1 [Compound 81, 2-(Morpholinocarbonyl)oxy-5-phenyl-N-[3,5-bis(trifluoromethyl)phenyl]benzamide] |  |  | 26.4% | 29.2%
12 | O=C(Nc1cc(C(F)(F)F)ccc1C(F)(F)F)c1cc(Br)ccc1OP(=O)([O-])O.[Na+] [Compound 142] | >99.9% |  |  | 
13 | O=C(Nc1cc(C(F)(F)F)cc(C(F)(F)F)c1)c1cc(Cl)ccc1OCOC(=O)N1CCC(C(=O)O)CC1 [Compound 104] | 48.4% | 58.8% |  | 
14 | CCN(CC)C(=O)Oc1ccc(Cl)cc1C(=O)Nc1cc(C(F)(F)F)cc(C(F)(F)F)c1 [Compound 68] | 53.0% | 47.4% |  | 
15 | N[C@@H](CCC(=O)O)C(=O)Oc1ccc(Cl)cc1C(=O)Nc1cc(C(F)(F)F)cc(C(F)(F)F)c1 [Compound 32] | 98.0% | 98.8% |  | 
16 | CC(C)C[C@H](N)C(=O)Oc1ccc(Cl)cc1C(=O)Nc1cc(C(F)(F)F)cc(C(F)(F)F)c1.Cl [Compound 27] | 95.8% | 99.2% |  | 
17 | CC(C)(C)OC(=O)C[C@H](NC(=O)OC(C)(C)C)C(=O)Oc1ccc(Cl)cc1C(=O)Nc1cc(C(F)(F)F)cc(C(F)(F)F)c1 [Compound 30] | 96.4% | 97.0% |  | 

Row | SMILES | Inhibitory Ratio of NF-κ B Activation(%) (Drug Concentration 1 μg/mL) | Inhibitory Ratio of NF-κ B Activation(%) (Drug Concentration 10 μg/mL) | inhibition at 1 µg/mL (Drug Concentration 1 μg/mL) | inhibition at 10 µg/mL (Drug Concentration 10 μg/mL)
18 | O=C(Nc1cc(C(F)(F)F)cc(C(F)(F)F)c1)c1cc(Cl)ccc1OP(=O)(OCc1ccccc1)OCc1ccccc1 [Compound 50, 5-chloro-2-(dibenzylphosphono)oxy-N-[3,5-bis(trifluoromethyl)phenyl]benzamide] |  |  | 90.7% | 97.1%
19 | O=C(Oc1ccc(Cl)cc1C(=O)Nc1cc(C(F)(F)F)cc(C(F)(F)F)c1)c1ccncc1 [Compound 7] | 93.9% | 98.8% |  | 
20 | COC(=O)[C@H](Cc1ccccc1)NC(=O)Oc1ccc(Cl)cc1C(=O)Nc1cc(C(F)(F)F)cc(C(F)(F)F)c1 [Compound 59] | 96.2% | 97.8% |  | 
21 | O=C(O)CNC(=O)Oc1ccc(Cl)cc1C(=O)Nc1cc(C(F)(F)F)cc(C(F)(F)F)c1 [Compound 57, 2-[N-(carboxymethyl)carbamoyl]oxy-5-chloro-N-[3,5-bis(trifluoromethyl)phenyl]-benzamide] |  |  | 95.4% | 97.2%
22 | CN1CCN(C(=O)Oc2ccc(Cl)cc2C(=O)Nc2cc(C(F)(F)F)cc(C(F)(F)F)c2)CC1 [Compound 72] | 39.4% | 35.2% |  | 
23 | CC(C)(C)OC(=O)NCCCC[C@H](NC(=O)CNC(=O)Oc1ccc(Cl)cc1C(=O)Nc1cc(C(F)(F)F)cc(C(F)(F)F)c1)C(=O)OC(C)(C)C [Compound 65] | 95.8% | 97.3% |  | 
24 | CC(C)(C)OC(=O)CC(=O)Oc1ccc(Cl)cc1C(=O)Nc1cc(C(F)(F)F)cc(C(F)(F)F)c1 [Compound 17] | 97.0% | 96.8% |  | 
25 | Cl.NCC(=O)Oc1ccc(Cl)cc1C(=O)Nc1cc(C(F)(F)F)cc(C(F)(F)F)c1 [Compound 23] | 19.8% | 97.3% |  | 
26 | O=C(Nc1cc(C(F)(F)F)ccc1Cl)c1cc(Br)ccc1OC(=O)N1CCOCC1 [Compound 85, 5-Bromo-N-[2-chloro-5-(trifluoromethyl)phenyl]-2-[(morpholinocarbonyl)oxy]-benzamide] |  |  | 21.4% | 29.8%
27 | CCCCC(=O)Oc1ccc(Cl)cc1C(=O)Nc1cc(C(F)(F)F)cc(C(F)(F)F)c1 [Compound 2] | 97.9% | 98.6% |  | 
28 | CC(C)C[C@H](NC(=O)[C@@H](N)Cc1ccccc1)C(=O)Oc1ccc(Cl)cc1C(=O)Nc1cc(C(F)(F)F)cc(C(F)(F)F)c1.Cl [Compound 36] | 97.8% | 98.7% |  | 
29 | O=C(Nc1cc(C(F)(F)F)ccc1C(F)(F)F)c1ccccc1OC(=O)N1CCOCC1 [Compound 132] | 32.3% |  |  | 
30 | CC(C)(C)c1ccc(OP(=O)([O-])O)c(C(=O)Nc2cc(C(F)(F)F)cc(C(F)(F)F)c2)c1.[Na+] [Compound 139] | 64.3% |  |  | 
31 | O=C(Nc1cc(C(F)(F)F)cc(C(F)(F)F)c1)c1cc(Cl)ccc1OS(=O)(=O)O [Compound 49] | 80.1% | 99.0% |  | 
32 | O=C(Nc1cc(C(F)(F)F)cc(C(F)(F)F)c1)c1cc(Cl)ccc1OCN1C(=O)c2ccccc2C1=O [Compound 111] | 94.3% | 96.0% |  | 
33 | CC(C)(C)C(=O)Oc1ccc(Cl)cc1C(=O)Nc1cc(C(F)(F)F)cc(C(F)(F)F)c1 [Compound 1, 5-Chloro-2-pivaloyloxy-N-[3,5-bis(trifluoromethyl)phenyl]benzamide] |  |  | 94.9% | 95.8%
34 | CCOc1ccc(Cl)cc1C(=O)Nc1cc(C(F)(F)F)cc(C(F)(F)F)c1 [Compound 95] | 31.3% | 71.4% |  | 
